In patent US6642003B2, “Human glucose-dependent insulin-secreting cell line” (Cedars-Sinai Medical Center, priority 2001, dated 2003):

Legend:
Assay type in all cases: cell-based, human
PANC-1 cells [1] = test: Flow cytometric (FACS) analysis for insulin, parental PANC-1 cells; details: presence or absence of GLP-1; equivalent to assay background
Description: (§1) For fluorescence-activated cells sorting (FACS) analysis, cells were cultured in the presence of GLP-1 (10 nM), or vehicle, for 72 h, then washed with cold PBS (pH 7.4; three times) and incubated overnight, on ice, in PBS with 2% paraformaldehyde. After centrifugation, the cell pellet was resuspended in 400 μl of cold 0.1% Triton diluted in FACS buffer (PBS with 2% FCS). After several centrifugation and washes, the cells were resuspended in the assay buffer with of 10 μl of fluorescent-conjugated insulin antibody (Cat N. FM205, FITC: Chromaprobe, Inc; Mountain View, Calif.), in the presence of 10 μl of blocking antibody (anti-mouse IgG; Organon Teknika-Cappel, West Chester, Pa.). Control samples were treated with PBS, without the primary antibody, and then incubated with an isotope-matched FITC-conjugated control antibody (murine IgG; Chromaprobe Inc., Mountain View, Calif.). Flow cytometric analysis was performed with a FACScan[R] cytometer, using the LYSYS II program, and by fluorescence microscopy, as is well known in the art. See, e.g., E. Elstner, M. Linker-Israeli, J. Le, T. Umiel, P. Michl, J. W. Said, L. Binderup, J. C. […]

PANC-1/IDX-1 cells [2] = test: Immunofluorescence for IDX-1, PANC-1/IDX-1 cells
Description: (§2) PANC-1 cells were transfected with a pcDNA3 construct (Invitrogen; Carlsbad, Calif.) harboring the wild-type full-length IDX-1 cDNA using LipoTAXI (Catalog N. 204110; Mammalian Transfection Kit, Stratagene; La Jolla, Calif.). Control cells were transfected with the vector alone. The selection of positive (i.e. transfected) cells was carried out by culturing the cells in the presence of 400 μg/ml of G418 sulfate (GN-04, Omega; Tarzana, Calif.).
Cells were cultured on monocoated chamber slides (Nalge Nunc International; Naperville, Ill.) in the presence of GLP-1 (10 nM), or vehicle, for 72 h.
For the detection of IDX-1, slightly different conditions were used. Briefly: the concentration of paraformaldehyde was decreased to 2%, and the concentration of Triton to permeabilize the cells was raised to 0.2% Triton-X-100. Cells were then washed with 0.01 M PBS three times for 3-5 min, and non-specific binding was inhibited by using 5% chick serum in 0.01 M PBS, at room temperature for 60 min in a humid chamber. […] The percentage of IDX-1 containing cells was evaluated by counting the number of IDX-1 “positive” cells divided by the total number of cells identified by nuclear staining.

PANC-1/IDX-1 cells [3] = test: Flow cytometric (FACS) analysis for insulin, PANC-1/IDX-1 cells; details: GLP-1 10 nM, 72 h
Description: as §2
as §1, with “Control samples were treated with PBS, without the primary antibody, and then incubated with an isotope-matched FITC-conjugated control antibody (murine IgG; Chromaprobe Inc., Mountain View, Calif.).” left out, “art.” for “art. See, e.g., E. Elstner, M. Linker-Israeli, J. Le, T. Umiel, P. Michl, J. W. Said, L. Binderup, J. C.”

PANC-1 cells [4] = test: RT-PCR of islet β-cell specific transcripts, parental PANC-1 cells; details: GLP-1 10 nM for 96 h
Description: After the treatment of ARIP and PANC-1 cells with GLP-1, Exendin-9, or vehicle, for the described length of time and the various doses, the culture medium was removed and the cells were washed (twice) with serum-free medium. Total RNA was isolated using the TRiazol-method (Gibco-BRL), and treated with DNase (Amplification Grade, GibcoBRL) in 20 mmol/l Tris-HCL (pH 8.4), 2 mmol/l MgCl2, and 50 mmol/l KCl to remove any traces of contaminating genomic DNA. RNA (2.5 μg) was then subjected to reverse transcription (RT reagents; Promega; Madison, Wis.). RT-PCR was undertaken in a volume of 50 μl of buffer containing 50 mmol/l KCl, 10 mmol/l Tris-HCl, 3.5 mmol/l MgCl2, 200 μmol/l each dNTPs, and 0.4 μmol/l each of sense and antisense primers to rat or human insulin (depending on the specific cell from which the RNA was extracted). Amplification was performed for 30 cycles at the denaturing temperature of 94° C. for 1 min, annealing temperature of 60° C. for 45 sec, and an extension temperature of 72° C. for 1 min. […] These included more irregular and variable cell shapes, with a cytoplasm less homogenous and “rougher” in appearance than control culture.
Treatment with GLP-1 induces the differentiation of ductal epithelial cells into insulin-producing cells. FIG. 2 illustrates a series of cell cultures grown with or without GLP-1 (10 nM) for 72 h. […]

PANC-1 cells [5] = test: Morphological changes (hematoxylin and eosin), parental PANC-1 cells; details: GLP-1 10 nM for 72 h
Text: Hematoxylin and eosin staining was employed, in some experiments, to show the morphological changes observed under the experimental conditions described below.

## glucagon-like peptide-1 [GLP-1]
PANC-1 cells [1]
  cells containing insulin in the cytoplasm: 1.4%
PANC-1/IDX-1 cells [2]; GLP-1 10 nM for 72 h
  effect on expression level of IDX-1: further increase
PANC-1/IDX-1 cells [2]; GLP-1 or vehicle, 400 cells counted
  cells expressing IDX-1: ~100%
PANC-1/IDX-1 cells [3]
  cultured cells converted from insulin negative to insulin positive: 61.7%
PANC-1 cells [4]
  RT-PCR for insulin: consistently negative
PANC-1 cells [5]
  morphological change: did not respond
